In US20090155180A1, “Methods and targets for identifying compounds for regulating rhinovirus infection” (priority 2007, published 2009):
Like-named read-outs stand apart in the source and are kept apart here.

Legend:
[1] = tested on: PGE2 formation; assay: PGE2 formation in cells infected with rhinovirus (Cisbio HTRF assay); format: cell-based, human
Source text: There are several standard methods available for quantifying PGE2. The HTRF® PGE2 assay (developed by Cisbio International, Cat. No. 62P2APEB) is an example of a highly sensitive method for quantifying PGE2. Its principle is based on HTRF technology (Homogeneous Time-Resolved Fluorescence). It can be performed either in cell supernatants or directly in the presence of whole cells. This method is a competitive immunoassay in which native PGE2 produced by cells, and d2-labelled PGE2 compete for binding to MAb anti-PGE2 labeled with cryptate. The HTRF signal is inversely proportional to the concentration of PGE2 in the calibrator or in the sample. The incubation time and temperature following addition of the HTRF detection reagents has little effect on the assay results providing another level of assay flexibility.
Briefly, consecutive dilutions (within the 0-5000 pg/ml range) of samples may be prepared with the diluent. The reagents are dispensed (as outlined in the protocol) into a 384-well low volume plate (20 ul). Negative and positive controls are included. The plate is covered with a plate sealer and incubated for 5 hours at room temperature or overnight at 4° C. Free PGE2 from the sample competes with […] for binding to the Cryptate conjugated anti-PGE2 antibody. Then the plate is read on a compatible HTRF reader.
(§1) Test compounds may be assayed for inhibition of prostaglandin production via contacting them individually with cells that have been infected with rhinovirus. An assay for prostaglandin is available from Cisbio International, Bedford Mass. One cell line suitable for infection by rhinovirus is A549 (ATCC designation CCL-185), a human epithelial lung carcinoma available from ATCC, Manassas, Va. […] A COX assay is available from Cayman Chemical, Ann Arbor, Mich.

[2] = molecular target: T1, ovine COX-1 (Ovis aries, UniProt P05979); assay: COX Inhibitor Screening Assay (Cayman), COX-1; format: biochemical
T1 construct: purchased Cayman Chemical Company 560101
T1 sequence (P05979 25-600): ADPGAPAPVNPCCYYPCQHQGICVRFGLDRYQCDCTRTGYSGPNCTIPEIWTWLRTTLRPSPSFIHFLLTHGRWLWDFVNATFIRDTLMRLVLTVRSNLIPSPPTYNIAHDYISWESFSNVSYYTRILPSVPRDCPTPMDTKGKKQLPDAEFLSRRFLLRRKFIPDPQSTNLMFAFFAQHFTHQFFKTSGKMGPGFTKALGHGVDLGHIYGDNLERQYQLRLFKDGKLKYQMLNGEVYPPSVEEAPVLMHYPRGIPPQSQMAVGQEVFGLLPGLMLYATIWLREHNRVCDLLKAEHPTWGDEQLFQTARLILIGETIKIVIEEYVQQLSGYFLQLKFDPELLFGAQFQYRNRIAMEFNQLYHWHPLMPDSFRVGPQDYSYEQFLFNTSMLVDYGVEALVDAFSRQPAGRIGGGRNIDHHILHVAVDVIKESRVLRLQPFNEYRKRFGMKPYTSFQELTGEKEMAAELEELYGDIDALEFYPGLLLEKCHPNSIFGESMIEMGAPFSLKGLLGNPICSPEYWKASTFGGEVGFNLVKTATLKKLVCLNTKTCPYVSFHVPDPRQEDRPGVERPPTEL
Source text: An example of a COX Inhibitor Screening Assay (Cat. No. 560101 manufactured by Cayman Chemical Company, Ann Harbor, Mich.) directly measures PGF2 produced by SnCl2 reduction of COX-derived PGH2. The prostanoid product may be quantified via enzyme immunoassay (EIA) using a broadly specific antibody that binds to all the major prostaglandin compounds. Thus, the COX assay is more accurate and reliable than an assay based on peroxidase inhibition. The Cayman COX Inhibitor Screening Assay includes both ovine COX-1 and human recombinant COX-2 enzymes in order to screen isozyme-specific inhibitors. This assay may be an excellent tool which can be used for general inhibitor screening, or to eliminate false positive leads generated by less specific methods.
as §1

[3] = molecular target: T2, human recombinant COX-2 (Homo sapiens, UniProt P35354); assay: biochemical; conditions: purified enzyme
T2 sequence (P35354 18-604): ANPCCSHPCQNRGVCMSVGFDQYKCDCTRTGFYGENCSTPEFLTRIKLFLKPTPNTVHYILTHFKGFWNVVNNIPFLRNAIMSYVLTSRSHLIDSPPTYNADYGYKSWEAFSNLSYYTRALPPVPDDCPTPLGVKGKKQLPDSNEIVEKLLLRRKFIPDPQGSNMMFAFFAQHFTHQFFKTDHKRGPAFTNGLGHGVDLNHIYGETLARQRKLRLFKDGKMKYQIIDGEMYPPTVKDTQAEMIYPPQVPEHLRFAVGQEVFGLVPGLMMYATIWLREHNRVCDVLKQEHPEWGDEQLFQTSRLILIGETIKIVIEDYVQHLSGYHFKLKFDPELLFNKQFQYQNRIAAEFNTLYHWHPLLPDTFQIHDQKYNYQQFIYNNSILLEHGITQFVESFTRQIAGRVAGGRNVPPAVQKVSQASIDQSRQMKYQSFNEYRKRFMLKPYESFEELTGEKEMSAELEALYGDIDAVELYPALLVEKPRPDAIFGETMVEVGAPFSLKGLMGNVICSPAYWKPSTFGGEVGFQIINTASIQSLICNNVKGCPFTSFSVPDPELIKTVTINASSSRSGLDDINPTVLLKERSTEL
Source text: An example of a COX Inhibitor Screening Assay (Cat. No. 560101 manufactured by Cayman Chemical Company, Ann Harbor, Mich.) directly measures PGF2 produced by SnCl2 reduction of COX-derived PGH2. The prostanoid product may be quantified via enzyme immunoassay (EIA) using a broadly specific antibody that binds to all the major prostaglandin compounds. […] The Cayman COX Inhibitor Screening Assay includes both ovine COX-1 and human recombinant COX-2 enzymes in order to screen isozyme-specific inhibitors.
An assay for prostaglandin is available from Cisbio International, Bedford Mass. One cell line suitable for infection by rhinovirus is A549 (ATCC designation CCL-185), a human epithelial lung carcinoma available from ATCC, Manassas, Va. […] A COX assay is available from Cayman Chemical, Ann Arbor, Mich.

[4] = tested on: NF-kB; assay: IL1b-induced NFkB nuclear translocation (Cellomics HitKit), A549 cells; format: cell-based; conditions: Homo sapiens, 0.5 h, IL1b 0.05 ng/ml for 30 min, then inhibitor 30 min
Source text: (§2) Because NF-κB must be in the nucleus to induce gene expression, its translocation is a definitive measure of its activation and marks an earlier event than reporter gene expression. This assay is an example of a 96-well medium throughput technology that can detect NF-κB translocation in several cell types.
(§3) Assays may be performed in standard, high-density microplates, where measurements of the rate and extent of NF-κB translocation are made in intact cells which provides more biological representative information. Cellomics' NF-κB activation kit (Cat. No. K01-001-1) may combine fluorescent reagents and protocols for optimized sample preparation and assays, and requires no cell lysis, purification or filtration steps. After fixation, the plates are stable for extended periods, when stored light-protected at 4° C.
(§4) One may create a fully automated screen to identify compounds that inhibit or activate NF-[…]B on a cell-by-cell basis. Prepared cells can be analyzed using standard fluorescence microscopy or using Cellomics' fully automated HCS Reader with the Cytoplasm to Nucleus Translocation Bioapplication, affording automated plate handling, focusing, image acquisition, analysis, quantification, and data storage.

[5] = tested on: NF-kB; assay: IL1b-induced NFkB nuclear translocation (Cellomics HitKit), BEAS-2B cells; format: cell-based; conditions: Homo sapiens, 0.5 h, IL1b 0.5 ng/ml for 30 min, then inhibitor 30 min
Source text: as §2, §3, §4

[6] = tested on: IP-10 (CXCL10); assay: IP-10 level in BEAS-2B cells infected with rhinovirus RV-16; format: cell-based, human; conditions: BEAS-2B cells infected with RV-16; test ingredient at 5 μM andrographolide content; control 61.99
Source text: An in vitro cell line of BEAS-2B cells can be infected with rhinovirus RV-16. The cells are then exposed to various compounds and extracts and subsequently levels of respiratory biomarker proteins can be assayed. Extracts and compounds are identified as regulating the respiratory biomarker proteins by monitoring the levels of the respiratory biomarker proteins after exposure of the infected cells to the extracts and compounds and comparing to the levels of the respiratory biomarker proteins in infected cells that have not been exposed to extracts and compounds.
In the example, the test ingredients are extracts of the herb andrographis paniculata, or its principal component, andrographolide. The test ingredients are tested at a level of 5 μM andrographolide content. The respiratory biomarker protein is IP-10 (CXCL10), a chemotactic agent.

Compound: CCOc1ccc2c(c1)C(C)=CC(C)(C)N2 [ETHOXYQUIN, ethoxyquin]
- IC50 ([1]; Homo sapiens, cells infected with rhinovirus (A549 named as suitable line), read-out: IC50 PGE2 formation): 0.03 µM
- IC50 [2]: 459 µM
- IC50 [3]: 54 µM

Compound: COc1cc(/C=C/C(=O)CC(=O)/C=C/c2ccc(O)c(OC)c2)ccc1O [Curcumin, curcumin]
- IC50 [4]: 37.5 µM
- IC50 [5]: 5.9 µM

Compound: C=C1CC[C@@H]2[C@](C)(CO)[C@H](O)CC[C@@]2(C)[C@@H]1C/C=C1/C(=O)OC[C@H]1O [Andrographolide, andrographolide]
- IP-10 (CXCL10) [6]: 18.07 pg/mL

Compound: C=CCc1ccc(O)c(OC)c1 [EUGENOL, eugenol]
- IC50 ([1]; Homo sapiens, A549, read-out: IC50 PGE2 formation): 0.42 µM
- IC50 [2]: 42 µM

Compound: CCCc1ccc(O)c(OC)c1 [DIHYDROEUGENOL, dihydroeugenol]
- IC50 ([1]; cells infected with rhinovirus (A549 named as suitable line), read-out: IC50 PGE2 formation): 0.38 µM
- IC50 ([2]; purified enzyme, read-out: IC50 COX-1 activity): 82 µM
- IC50 [3]: 75 µM
